Test results taken from US20240067651A1 (Biohaven Therapeutics Ltd., priority 2019, published 2024).

Experiments:
Plasma Stability = assay type: in vitro ADME, human
Method in brief: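 Parent compound quantified by LC-MS/MS after acetonitrile precipitation, reported as percent of control remaining (triplicate). Incubation: 1 hour, 37° C, fresh human plasma, compound at 1 μM.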

[1] = Caco-2 Permeability Assay; assay type: in vitro ADME, human; settings: human
Method in brief: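 Bidirectional transport at 37 °C for 90 min, 10 μM donor concentration, with or without Pgp inhibitor, across 21-day Caco-2 monolayers with TEER >600 […] in HEPES-buffered HBSS, pH 7.4. LC-MS/MS of donor and receiver samples gives Papp, B→A/A→B efflux ratio and mass recovery.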

[2] = Stability in Simulated Intestinal Fluid (SIF); assay type: in vitro ADME; parameters: key: % parent compound remaining relative to 0-minute sample
Method in brief: (§1)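 2 μg/mL final; SGF + pepsin pH 1.2 or SIF + pancreatin pH 6.8; 37° C, 150 rpm, 0–60 min. ACN quench with propranolol IS, LC-MS/MS. % parent vs 0 min; t1/2 from ln plot.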

[3] = Stability in Simulated Gastric Fluid (SGF); assay type: in vitro ADME; parameters: key: % parent compound remaining relative to 0-minute sample
Method in brief: as §1

[4] = % remaining at 1 h in human plasma
[5] = Caco-2, pH 7.4, Caco-2 monolayer
[6] = % remaining at 1 h in simulated intestinal fluid
[7] = % remaining at 1 h in simulated gastric fluid
[8] = % remaining at 1 h, human plasma, 1 μM, 37° C.
[9] = Caco-2, pH 7.4, donor 10 μM, 90 minutes, 37° C., direction not given
[10] = % remaining at 1 h, SIF with pancreatin pH 6.8, 2 μg/mL, 37° C.
[11] = % remaining at 1 h, SGF with pepsin pH 1.2, 2 μg/mL, 37° C.
[12] = % @ 1 h (remaining) in human plasma
[13] = % @ 1 h (remaining) in simulated intestinal fluid
[14] = % @ 1 h (remaining) in simulated gastric fluid

Compound	human Plasma stability (Plasma Stability; [4])	Papp at 90 min, 10 µM [1, 5]	SIF [2, 6]	SGF [3, 7]	human Plasma stability (Plasma Stability; [8])	Papp at 90 min, 10 µM [1, 9]	SIF [2, 10]	SGF [3, 11]	human Plasma stability (Plasma Stability; [12])	SIF [2, 13]	SGF [3, 14]
CC(C)OCCn1c(=S)[nH]c(=O)c2c1ccn2COC(=O)[C@H]1CCN(C(=O)OC(C)(C)C)C1 [Example 130]	4% remaining	17.6 ×10⁻⁶ cm/s	64% remaining	61% remaining							
CC(C)OCCn1c(SCOC(=O)C2CCN(C(=O)OC(C)(C)C)CC2)nc(=O)c2c1ccn2COC(=O)CCC(=O)OC(C)(C)C [Example 131]	1% remaining	6.58 ×10⁻⁶ cm/s	75% remaining	99% remaining							
CC(C)OCCn1c(=S)n(COC(=O)C2CCN(C(=O)OC(C)(C)C)CC2)c(=O)c2c1ccn2COC(=O)CCC(=O)OC(C)(C)C [Example 132]	11% remaining	4.29 ×10⁻⁶ cm/s	71% remaining	9% remaining							
CC(C)OCCn1c(SCOC(=O)C2CCNCC2)nc(=O)c2c1ccn2COC(=O)CCC(=O)O [Example 133]	7% remaining	< 0.198 ×10⁻⁶ cm/s	97% remaining	82% remaining							
CC(C)OCCn1c(=S)[nH]c(=O)c2c1ccn2COC(=O)C[C@H](NC(=O)CCCCCCCCCCC(=O)O)C(=O)O [Example 142, 11-{[(1S)-1-carboxy-3-oxo-3-({4-oxo-1-[2-(propan-2-yloxy)ethyl]-2-sulfanylidene-1H,2H,3H,4H,5H-pyrrolo[3,2-d]pyrimidin-5-yl}methoxy)propyl]carbamoyl}undecanoic acid]					97% remaining	< 0.19 ×10⁻⁶ cm/s	97% remaining	100% remaining			
CC(C)OCCn1c(=S)n(COC(=O)C(C)(C)C)c(=O)c2c1ccn2COC(=O)C(C)(C)C [Example 143, 2,2-Dimethyl-propionic acid 5-(2,2-dimethyl-propionyloxymethyl)-1-(2-isopropoxy-ethyl)-4-oxo-2-thioxo-1,2,4,5-tetrahydro-pyrrolo[3,2-d]pyrimidin-3-ylmethyl ester]					21%	3 ×10⁻⁶ cm/s	82%	62%			
CCCC(=O)OCn1ccc2c1c(=O)[nH]c(=S)n2CCOC(C)C [Example 154]		4.03 ×10⁻⁶ cm/s							9% @ 1 h	0% @ 1 h	82% @ 1 h
CCCC(=O)OCSc1nc(=O)c2c(ccn2COC(=O)CCC)n1CCOC(C)C [Example 155]		2.79 ×10⁻⁶ cm/s							1% @ 1 h	0% @ 1 h	73% @ 1 h
CCC(=O)OCn1ccc2c1c(=O)[nH]c(=S)n2CCOC(C)C [Example 156]		6.55 ×10⁻⁶ cm/s							0% @ 1 h	1% @ 1 h	99% @ 1 h
CC(C)OCCn1c(=S)[nH]c(=O)c2c1ccn2COC(=O)c1ccccc1.O=C(O)C(F)(F)F [Example 157]		7.3 ×10⁻⁶ cm/s							0% @ 1 h	20% @ 1 h	96% @ 1 h
CC(=O)OCn1ccc2c1c(=O)[nH]c(=S)n2CCOC(C)C [Example 159]		8.42 ×10⁻⁶ cm/s							0% @ 1 h	83% @ 1 h	79% @ 1 h
CCCCN(C)C(=O)OCSc1nc(=O)c2[nH]ccc2n1CCOC(C)C.O=C(O)C(F)(F)F [Example 160]		15.8 ×10⁻⁶ cm/s							99% @ 1 h	95% @ 1 h	92% @ 1 h
CC(C)CN(C)C(=O)OCSc1nc(=O)c2c(ccn2COC(=O)N(C)CC(C)C)n1CCOC(C)C [Example 161]		31.3 ×10⁻⁶ cm/s							99% @ 1 h	80% @ 1 h	80% @ 1 h
CCN(C)C(=O)OCSc1nc(=O)c2[nH]ccc2n1CCOC(C)C [Example 163]		4.2 ×10⁻⁶ cm/s							90% @ 1 h	96% @ 1 h	99% @ 1 h
CC(C)OCCn1c(SCOC(=O)N(C)C)nc(=O)c2[nH]ccc21.O=C(O)C(F)(F)F [Example 164]		4.2 ×10⁻⁶ cm/s							98% @ 1 h	99% @ 1 h	100% @ 1 h
CC(C)OCCn1c(SCOC(=O)N(C)C)nc(=O)c2c1ccn2COC(=O)N(C)C [Example 165, trifluoroacetic acid [2-({[(dimethylcarbamoyl)oxy]methyl}sulfanyl)-4-oxo-1-[2-(propan-2-yloxy)ethyl]-1H,4H,5H-pyrrolo[3,2-d]pyrimidin-5-yl]methyl N,N-dimethylcarbamate]		2.56 ×10⁻⁶ cm/s							97% @ 1 h	99% @ 1 h	84% @ 1 h
CC(C)OCCn1c(SCOC(=O)N(C)C(C)C)nc(=O)c2[nH]ccc21.O=C(O)C(F)(F)F [Example 166]		7.08 ×10⁻⁶ cm/s							100% @ 1 h	99% @ 1 h	99% @ 1 h
CC(C)OCCn1c(SCOC(=O)N(C)C(C)(C)C)nc(=O)c2[nH]ccc21.O=C(O)C(F)(F)F [Example 167]		17.8 ×10⁻⁶ cm/s							98% @ 1 h	99% @ 1 h	99% @ 1 h
CC(C)OCCn1c(SCOC(=O)N(C)C(C)(C)C)nc(=O)c2c1ccn2COC(=O)N(C)C(C)(C)C.O=C(O)C(F)(F)F [Example 168]		28.1 ×10⁻⁶ cm/s							88% @ 1 h	94% @ 1 h	100% @ 1 h
CCN(C)C(=O)OCn1ccc2c1c(=O)nc(SCOC(=O)N(C)C(C)C)n2CCOC(C)C.O=C(O)C(F)(F)F [Example 170]		14.1 ×10⁻⁶ cm/s							99% @ 1 h	92% @ 1 h	99% @ 1 h
CC(C)OCCn1c(SCOC(=O)N(C)C(C)C)nc(=O)c2c1ccn2COC(=O)N(C)C(C)C.O=C(O)C(F)(F)F [Example 171]		21.7 ×10⁻⁶ cm/s							97% @ 1 h	89% @ 1 h	100% @ 1 h
CC(C)CN(C)C(=O)OCSc1nc(=O)c2[nH]ccc2n1CCOC(C)C [Example 172]		23.7 ×10⁻⁶ cm/s							98% @ 1 h	95% @ 1 h	100% @ 1 h
CC(C)OCCn1c(SCOC(=O)N(C)Cc2ccccc2)nc(=O)c2[nH]ccc21.O=C(O)C(F)(F)F [Example 173]		20.5 ×10⁻⁶ cm/s							99% @ 1 h	99% @ 1 h	95% @ 1 h
CC(C)OCCn1c(SCOC(=O)N(C)CCc2ccccc2)nc(=O)c2[nH]ccc21.O=C(O)C(F)(F)F [Example 175]		30.9 ×10⁻⁶ cm/s							95% @ 1 h	92% @ 1 h	99% @ 1 h
CC(C)OCCn1c(SCOC(=O)N(C)CCc2ccccc2)nc(=O)c2c1ccn2COC(=O)N(C)CCc1ccccc1.O=C(O)C(F)(F)F [Example 176]		40.4 ×10⁻⁶ cm/s							99% @ 1 h	100% @ 1 h	86% @ 1 h
C=CCN(C)C(=O)OCSc1nc(=O)c2[nH]ccc2n1CCOC(C)C.O=C(O)C(F)(F)F [Example 177]		15.2 ×10⁻⁶ cm/s							99% @ 1 h	89% @ 1 h	99% @ 1 h
C=CCN(C)C(=O)OCSc1nc(=O)c2c(ccn2COC(=O)N(C)CC=C)n1CCOC(C)C.O=C(O)C(F)(F)F [Example 178]		19.4 ×10⁻⁶ cm/s							86% @ 1 h	75% @ 1 h	99% @ 1 h
